{"source": "patent US4425356A", "about": "“Lankacidin derivatives used in swine husbandry” (Takeda Chemical Industries, Ltd., priority 1980, dated 1984)", "key": {"Treponema hyodysenteriae [1]": {"tested_on": "Treponema hyodysenteriae", "assay": "in vitro antibacterial activity (MIC, agar dilution method), Test Examples 1-3", "format": "cell-based", "how_it_was_run": "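MICs were found by agar dilution against field isolates from bloody mucous faeces of dysenteric pigs in Japan. The inoculum was a loopful of 10^6 CFU/ml suspension. Plates were incubated anaerobically (GasPak) at 37 °C.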"}, "Treponema hyodysenteriae [2]": {"tested_on": "Treponema hyodysenteriae", "assay": "efficacy in experimental infection in mice with swine dysentery, Test Example 4", "format": "in vivo", "settings": "5 mg/kg/day oral, day 1 to day 4; seven days after infection", "description": "Lankacidin A, lankacidin C, lankacidin C 8-acetate, lankacidin C 14-propionate, lankacidinol A and lankacidinol were tested for efficacy against swine dysentery in experimental infection in mice with swine dysentery.\nThe similar experimental infection model of swine dysentery in mice as that described, for example, by Joens et al. in Infection and Immunity, 25, 757-760 (1979), American Journal of Veterinary Research, 41, 1225-1226 (1980) and Veterinary Record, 107, 527-529 (1980) was used. Thus, a field isolate of Treponema hyodysenteriae anaerobically cultivated on the 5% defibrinated horse blood added Trypticase soy agar (BBL) plate was mashed together with the culture medium and diluted two-fold with Trypticase soy broth (BBL). Mice were inoculated intragastrically with this infecting dilution. Each test agent was suspended in 5% gum arabic solution and forcibly administered orally from day 1 to day 4 following infection. Seven days after infection, the cecum was examined for lesions, and the cecum was mashed together with the contents and subjected to Treponema hyodysenteriae counting. Excellent efficacy was produced in each of the drug-administered groups."}, "[3]": {"assay": "acute toxicity tests with mice", "settings": "mouse, in vivo", "excerpt": "The toxicity of compound (I) in animals is very low."}, "[4]": {"assay": "growth of pigs, 5-month continuous dietary administration, Test Examples 10-11", "format": "in vivo, Landrace pigs", "settings": "for Body weight at end / Body weight at feed exchange / Body weight gain for starter feed period / Body weight gain for whole period / Feed conversion for starter feed period / Feed conversion for whole period / Feed intake for starter feed period / Feed intake for whole period: mean per head", "description": "Effects of compound (I) on the growth of pigs under the conditions in which swine dysentery was absent were examined. Thus, 40 one-month-old Landrace pigs (5 litters) were used in groups each consisting of 8 (4 males and 4 females). Lankacidin C was added in concentrations of 0 (control), 1, 2.5, 5 and 10 ppm to antibacterial agent-free starter feed for the period from the start of the test through the age of 3 months and to the feed for testing pigs for performance of meat production (also free of antibacterial agents) for the period from the age of 4 months to the age of 6 months (end). Thus, in each group, dietary lankacidin C was administered continuously for 5 months.\nThe data are each the mean value per head. Different alphabetic letters o\nFourty-eight 35-day-old Landrace pigs (6 litters) were used in 6 groups each consisting of 8 (4 males and 4 females). Lankacidin A was added in concentrations of 0 (control), 1, 2.5, 5, 10 and 20 ppm to antibacterial agent-free starter feed for the period from the start of the test through the age of 3 months and to the feed for testing pigs for performance of meat production (also free of antibacterial agents) for the period from the age of 4 months to the age of 6 months (end)."}, "[5]": {"tested_on": "Treponema hyodysenteriae 78/A strain", "assay": "therapeutic administration in pigs showing clinical signs of swine dysentery, Test Examples 8-9", "format": "in vivo", "settings": "for No. of pathogen (in feces) / Condition of feces: individual pig", "description": "This test was conducted under the conditions of so-called therapeutic administration. […] The method of infection was the same as in Test Example 5. […] Simultaneously with showing of the signs, the pigs were provided with a feed containing 50 ppm of lankacidin C. […] After 2 days, the viable count for the pathogen in feces was below the detection limit (10^2 CFU/g).\nThe condition of feces was rated at one of the following four classes:\n.circle. normal; loose; diarrheal; .circleincircle. mucous and bloody\ncount is below the detection limit (10^2 CFU/g).\nThe symbol * indicates those days on which the feed containing 50 ppm of\nlankacidin C was given.\nLankacidins were tested for therapeutic effects in swine dysentery under therapeutic conditions in the same manner as in Test Example 8. The effects were judged based on the condition of feces.\nThe condition of feces was rated at one of the following four classes;\nThe symbol * indicates the days on which the feed containing 50 ppm of th"}, "[6]": {"settings": "50 ppm in feed, autopsy 15 days after manifestation of signs"}}, "note": "Several values for one entry are separate records, joined by “and”; a condition that tells them apart may be missing. Equal entries are not always repeated. Where two headings read alike, the source gives them in different places.", "data": [{"molecule": "CC(=O)C(=O)NC1C=C(C)C=CC(O)CC=C(C)C=CC(O)CC2OC(=O)C1(C)C(=O)C2C", "note": "(stereo not drawn) [Lankacidin C, lankacidin C]", "values": [{"measurement": "MIC", "setting": "Treponema hyodysenteriae [1]; Brachyspira hyodysenteriae, 48 h, read-out: Minimum Inhibitory Concentration, strain DJ70P1, 37° C., 2 days, anaerobic", "value": 3.13, "unit": "µg/mL"}, {"measurement": "in vitro antibacterial activity (in words)", "setting": "Treponema hyodysenteriae [1]; against Treponema hyodysenteriae", "value": "strong antibacterial activity"}, {"measurement": "Number of mice from which the pathogen was detected/number of mice tested", "setting": "Treponema hyodysenteriae [2]", "value": "1/5"}, {"measurement": "Number of mice with cecal lesions/number of mice tested", "setting": "Treponema hyodysenteriae [2]", "value": "0/5"}, {"measurement": "LD50", "setting": "[3]; ip, intraperitoneal, read-out: intraperitoneal LD50", "value": 4500, "unit": "mg/kg"}, {"measurement": "LD50", "setting": "[3]; oral, read-out: oral LD50", "value": "> 10000", "unit": "mg/kg"}, {"measurement": "Body weight at end", "setting": "[4]; 1 ppm in feed", "value": 102.4, "unit": "kg"}, {"measurement": "Body weight at feed exchange", "setting": "[4]; 1 ppm in feed", "value": 32.7, "unit": "kg"}, {"measurement": "Body weight gain for starter feed period", "setting": "[4]; 1 ppm in feed", "value": 25.4, "unit": "kg"}, {"measurement": "Body weight gain for whole period", "setting": "[4]; 1 ppm in feed", "value": 95.0, "unit": "kg"}, {"measurement": "Feed conversion for starter feed period", "setting": "[4]; 1 ppm in feed", "value": 1.95}, {"measurement": "Feed conversion for whole period", "setting": "[4]; 1 ppm in feed", "value": 2.90}, {"measurement": "Feed intake for starter feed period", "setting": "[4]; 1 ppm in feed", "value": 49.4, "unit": "kg"}, {"measurement": "Feed intake for whole period", "setting": "[4]; 1 ppm in feed", "value": 275.6, "unit": "kg"}, {"measurement": "Body weight at end", "setting": "[4]; 2.5 ppm in feed", "value": 104.6, "unit": "kg"}, {"measurement": "Body weight at feed exchange", "setting": "[4]; 2.5 ppm in feed", "value": 34.2, "unit": "kg"}, {"measurement": "Body weight gain for starter feed period", "setting": "[4]; 2.5 ppm in feed", "value": 26.9, "unit": "kg"}, {"measurement": "Body weight gain for whole period", "setting": "[4]; 2.5 ppm in feed", "value": 97.2, "unit": "kg"}, {"measurement": "Feed conversion for starter feed period", "setting": "[4]; 2.5 ppm in feed", "value": 1.83}, {"measurement": "Feed conversion for whole period", "setting": "[4]; 2.5 ppm in feed", "value": 2.86}, {"measurement": "Feed intake for starter feed period", "setting": "[4]; 2.5 ppm in feed", "value": 49.1, "unit": "kg"}, {"measurement": "Feed intake for whole period", "setting": "[4]; 2.5 ppm in feed", "value": 278.0, "unit": "kg"}, {"measurement": "Body weight at end", "setting": "[4]; 5 ppm in feed", "value": 109.0, "unit": "kg"}, {"measurement": "Body weight at feed exchange", "setting": "[4]; 5 ppm in feed", "value": 36.9, "unit": "kg"}, {"measurement": "Body weight gain for starter feed period", "setting": "[4]; 5 ppm in feed", "value": 29.5, "unit": "kg"}, {"measurement": "Body weight gain for whole period", "setting": "[4]; 5 ppm in feed", "value": 101.7, "unit": "kg"}, {"measurement": "Feed conversion for starter feed period", "setting": "[4]; 5 ppm in feed", "value": 1.72}, {"measurement": "Feed conversion for whole period", "setting": "[4]; 5 ppm in feed", "value": 2.80}, {"measurement": "Feed intake for starter feed period", "setting": "[4]; 5 ppm in feed", "value": 50.7, "unit": "kg"}, {"measurement": "Feed intake for whole period", "setting": "[4]; 5 ppm in feed", "value": 284.6, "unit": "kg"}, {"measurement": "Body weight at end", "setting": "[4]; 10 ppm in feed", "value": 110.2, "unit": "kg"}, {"measurement": "Body weight at feed exchange", "setting": "[4]; 10 ppm in feed", "value": 37.5, "unit": "kg"}, {"measurement": "Body weight gain for starter feed period", "setting": "[4]; 10 ppm in feed", "value": 30.1, "unit": "kg"}, {"measurement": "Body weight gain for whole period", "setting": "[4]; 10 ppm in feed", "value": 102.8, "unit": "kg"}, {"measurement": "Feed conversion for starter feed period", "setting": "[4]; 10 ppm in feed", "value": 1.70}, {"measurement": "Feed conversion for whole period", "setting": "[4]; 10 ppm in feed", "value": 2.77}, {"measurement": "Feed intake for starter feed period", "setting": "[4]; 10 ppm in feed", "value": 51.2, "unit": "kg"}, {"measurement": "Feed intake for whole period", "setting": "[4]; 10 ppm in feed", "value": 284.8, "unit": "kg"}, {"measurement": "growth and feed efficiency (in words)", "setting": "[4]; dietary, 5 months", "value": "growth of pigs was increased in a manner almost proportional to the level of addition of lankacidin C, and accordingly the feed efficiency was improved"}, {"measurement": "therapeutic effect in swine dysentery (in words)", "setting": "[5]; 50 ppm in feed", "value": "therapeutically effective"}, {"measurement": "viable count for the pathogen in feces", "setting": "[5]; 50 ppm in feed, after 2 days", "value": "< 10^2 CFU/g"}, {"measurement": "colonic lesions (autopsy)", "setting": "[5]; [6]", "value": "negative"}, {"measurement": "pathogen at autopsy (in words)", "setting": "[5]; [6]", "value": "without the pathogen being detected"}, {"measurement": "colonic lesions (autopsy)", "setting": "[5]; 50 ppm in feed, autopsy 15 days after manifestation of signs, listed as lankacidin C", "value": "no colonic lesions"}, {"measurement": "No. of pathogen (in feces)", "setting": "[5]; 50 ppm in feed, day 0", "value": "8.0 log/g and 6.0 log/g and 7.1 log/g and 6.8 log/g"}, {"measurement": "No. of pathogen (in feces)", "setting": "[5]; 50 ppm in feed, day 1", "value": "4.3 log/g and 2.3 log/g and 4.4 log/g and 2.0 log/g"}, {"measurement": "mucous bloody diarrhea / passage (in words)", "setting": "[5]; 50 ppm in feed, day following the administration", "value": "mucous bloody diarrhea was no more observed on the day following the administration but the passage was loose or normal"}, {"measurement": "Condition of feces", "setting": "[5]; Table 8, 50 ppm in feed days 0-6, day 7", "value": ".circle."}, {"measurement": "Condition of feces", "setting": "[5]; Table 8, 50 ppm in feed days 0-6, day 8", "value": ".circle."}, {"measurement": "Condition of feces", "setting": "[5]; Table 8, 50 ppm in feed days 0-6, day 9", "value": ".circle."}, {"measurement": "Condition of feces", "setting": "[5]; Table 8, 50 ppm in feed days 0-6, day 10", "value": ".circle."}, {"measurement": "Condition of feces", "setting": "[5]; Table 8, 50 ppm in feed days 0-6, day 11", "value": ".circle."}, {"measurement": "Condition of feces", "setting": "[5]; Table 8, 50 ppm in feed days 0-6, day 12", "value": ".circle."}, {"measurement": "Condition of feces", "setting": "[5]; Table 8, 50 ppm in feed days 0-6, day 13", "value": ".circle."}, {"measurement": "Condition of feces", "setting": "[5]; Table 8, 50 ppm in feed days 0-6, day 14", "value": ".circle."}, {"measurement": "Condition of feces", "setting": "[5]; Table 8, 50 ppm in feed days 0-6, day 15", "value": ".circle."}, {"measurement": "Condition of feces", "setting": "[5]; Table 8, 50 ppm in feed, day 0 after manifestation of signs", "value": ".circleincircle."}, {"measurement": "Condition of feces", "setting": "[5]; Table 8, 50 ppm in feed, day 1", "value": ".circle."}, {"measurement": "Condition of feces", "setting": "[5]; Table 8, 50 ppm in feed, day 2", "value": ".circle."}, {"measurement": "Condition of feces", "setting": "[5]; Table 8, 50 ppm in feed, day 3", "value": ".circle."}, {"measurement": "Condition of feces", "setting": "[5]; Table 8, 50 ppm in feed, day 4", "value": ".circle."}, {"measurement": "Condition of feces", "setting": "[5]; Table 8, 50 ppm in feed, day 5", "value": ".circle."}, {"measurement": "Condition of feces", "setting": "[5]; Table 8, 50 ppm in feed, day 6", "value": ".circle."}, {"measurement": "Condition of feces", "setting": "[5]; Table 9, 50 ppm in feed, day 0 after manifestation of signs", "value": ".circleincircle."}, {"measurement": "Condition of feces", "setting": "[5]; Table 9, 50 ppm in feed, day 1", "value": ".circle."}, {"measurement": "Condition of feces", "setting": "[5]; Table 9, 50 ppm in feed, day 2", "value": ".circle."}, {"measurement": "Condition of feces", "setting": "[5]; Table 9, 50 ppm in feed, day 3", "value": ".circle."}, {"measurement": "Condition of feces", "setting": "[5]; Table 9, 50 ppm in feed, day 4", "value": ".circle."}, {"measurement": "Condition of feces", "setting": "[5]; Table 9, 50 ppm in feed, day 5", "value": ".circle."}]}]}
